Experimental data: PubChem BioAssay AID651670 (Sanford-Burnham Center for Chemical Genomics, 2012)
pIC50: −log10 of the molar value. Activity calls are given as the source filed them.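 Rule for the calls: active = IC50 at or below 20 µM; inactive = the rest.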

target: Fatty acid synthase (Homo sapiens) (UniProt P49327); test: FAS thioesterase domain inhibitors, SAR follow-up, biochemical, endpoint fluorescence intensity, analogs (AID 651670); settings: recombinant FAS-TE, OMFH fluorogenic substrate
Sequence (P49327 whole entry, looked up, the tested form may be a part): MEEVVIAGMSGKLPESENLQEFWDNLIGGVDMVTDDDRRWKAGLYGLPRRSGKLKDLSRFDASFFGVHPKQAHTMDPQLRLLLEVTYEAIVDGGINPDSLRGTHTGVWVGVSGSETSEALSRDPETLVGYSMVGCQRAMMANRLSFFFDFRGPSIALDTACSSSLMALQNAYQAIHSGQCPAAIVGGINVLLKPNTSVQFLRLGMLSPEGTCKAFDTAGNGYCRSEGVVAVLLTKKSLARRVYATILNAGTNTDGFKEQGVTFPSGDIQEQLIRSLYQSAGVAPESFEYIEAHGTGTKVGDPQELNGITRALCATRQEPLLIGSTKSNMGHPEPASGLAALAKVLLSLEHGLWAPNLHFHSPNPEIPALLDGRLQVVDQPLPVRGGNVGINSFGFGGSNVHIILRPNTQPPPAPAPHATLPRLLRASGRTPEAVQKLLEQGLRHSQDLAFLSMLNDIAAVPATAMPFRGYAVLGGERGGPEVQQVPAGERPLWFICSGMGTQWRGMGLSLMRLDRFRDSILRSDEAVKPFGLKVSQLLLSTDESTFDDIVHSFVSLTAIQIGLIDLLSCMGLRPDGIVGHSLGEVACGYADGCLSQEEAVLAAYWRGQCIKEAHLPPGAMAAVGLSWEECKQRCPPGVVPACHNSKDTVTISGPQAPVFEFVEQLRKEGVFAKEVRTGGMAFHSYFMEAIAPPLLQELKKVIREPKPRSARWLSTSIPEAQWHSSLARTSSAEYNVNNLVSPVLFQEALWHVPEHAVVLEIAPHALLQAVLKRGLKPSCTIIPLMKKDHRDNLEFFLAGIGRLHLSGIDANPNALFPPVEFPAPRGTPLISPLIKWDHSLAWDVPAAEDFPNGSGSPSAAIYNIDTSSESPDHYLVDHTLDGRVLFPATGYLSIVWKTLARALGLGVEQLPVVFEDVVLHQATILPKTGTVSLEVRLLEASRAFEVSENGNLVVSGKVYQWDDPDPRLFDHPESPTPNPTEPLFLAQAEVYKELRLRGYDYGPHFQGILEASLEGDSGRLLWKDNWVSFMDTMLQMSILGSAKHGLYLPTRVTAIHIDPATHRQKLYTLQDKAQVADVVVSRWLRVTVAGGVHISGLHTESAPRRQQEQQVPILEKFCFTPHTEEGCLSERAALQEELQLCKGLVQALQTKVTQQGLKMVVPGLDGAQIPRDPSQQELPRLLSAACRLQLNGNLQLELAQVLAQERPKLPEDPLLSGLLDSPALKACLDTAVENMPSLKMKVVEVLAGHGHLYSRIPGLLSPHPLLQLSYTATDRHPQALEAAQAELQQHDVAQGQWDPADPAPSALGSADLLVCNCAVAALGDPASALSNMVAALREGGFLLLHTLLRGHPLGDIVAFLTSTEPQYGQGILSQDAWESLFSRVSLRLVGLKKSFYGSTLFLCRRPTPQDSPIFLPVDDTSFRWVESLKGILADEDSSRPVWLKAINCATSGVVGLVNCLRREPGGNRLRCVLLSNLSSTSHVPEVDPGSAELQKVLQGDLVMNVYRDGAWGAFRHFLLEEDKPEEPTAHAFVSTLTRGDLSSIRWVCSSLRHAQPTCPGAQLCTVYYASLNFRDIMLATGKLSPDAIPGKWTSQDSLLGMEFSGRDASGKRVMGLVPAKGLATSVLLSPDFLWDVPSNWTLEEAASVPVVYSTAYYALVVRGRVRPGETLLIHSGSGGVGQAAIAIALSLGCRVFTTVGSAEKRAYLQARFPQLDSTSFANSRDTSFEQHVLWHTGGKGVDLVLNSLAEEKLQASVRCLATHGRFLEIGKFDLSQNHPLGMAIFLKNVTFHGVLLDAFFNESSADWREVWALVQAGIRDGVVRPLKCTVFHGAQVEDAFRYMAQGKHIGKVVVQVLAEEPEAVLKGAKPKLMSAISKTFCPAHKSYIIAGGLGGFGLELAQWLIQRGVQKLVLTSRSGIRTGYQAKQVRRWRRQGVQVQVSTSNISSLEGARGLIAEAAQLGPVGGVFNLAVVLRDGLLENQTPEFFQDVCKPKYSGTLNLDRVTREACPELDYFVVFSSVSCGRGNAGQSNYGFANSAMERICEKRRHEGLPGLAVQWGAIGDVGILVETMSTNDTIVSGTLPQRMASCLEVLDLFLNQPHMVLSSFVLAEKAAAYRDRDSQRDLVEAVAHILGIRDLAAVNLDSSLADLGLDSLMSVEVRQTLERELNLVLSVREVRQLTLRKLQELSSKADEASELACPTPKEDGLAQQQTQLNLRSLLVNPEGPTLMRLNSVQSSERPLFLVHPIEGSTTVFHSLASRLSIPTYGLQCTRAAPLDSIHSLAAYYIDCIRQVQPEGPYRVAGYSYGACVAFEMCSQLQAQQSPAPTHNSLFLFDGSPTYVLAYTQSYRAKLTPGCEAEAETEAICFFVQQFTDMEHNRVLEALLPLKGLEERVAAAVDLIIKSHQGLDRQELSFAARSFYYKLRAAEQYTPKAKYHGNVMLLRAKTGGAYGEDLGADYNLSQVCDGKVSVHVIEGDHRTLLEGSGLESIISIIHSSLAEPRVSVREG

IC50 | pIC50 | SMILES
– | 5.71 | COc1ccc(-c2nnc(SCC(=O)Nc3ncc(C(F)(F)F)cc3Cl)n2C)cc1
inactive | – | CCCn1c(SCC(=O)Nc2ncc(C(F)(F)F)cc2Cl)nnc1-c1ccncc1
inactive | – | Cn1c(Cc2ccccc2)nnc1SCC(=O)Nc1ncc(C(F)(F)F)cc1Cl
> 80 µM (inactive) | – | Cc1nnc(SCC(=O)Nc2ncc(C(F)(F)F)cc2Cl)n1-c1ccccc1
– | 5.08 | Cn1c(SCC(=O)Nc2ncc(C(F)(F)F)cc2Cl)nnc1-c1ccc(F)cc1
inactive | – | CCn1c(SCC(=O)Nc2ncc(C(F)(F)F)cc2Cl)nnc1-c1ccncc1

The next lines start with the compound.

SMILES | IC50 | pIC50
Cn1c(SCC(=O)Nc2cccc(Cl)c2)nnc1-c1ccc(Cl)cc1 | > 80 µM (inactive) | –
COc1ccc(CN(C)C(=O)Cc2ccc(S(=O)(=O)N3CCOCC3)s2)cc1OC | > 80 µM (inactive) | –
O=S(=O)(c1ccc(-c2csc(Cc3ccccc3)n2)cc1)N1CCOCC1 | – | 6.18
CCc1ccc(CN(C)C(=O)Cc2ccc(S(=O)(=O)N3CCCC3)s2)cc1 | – | 4.89
CC(=O)Nc1nc(-c2ccc(S(=O)(=O)N3CCOCC3)cc2)cs1 | – | 4.82
O=C(Nc1nc(-c2ccc(S(=O)(=O)N3CCOCC3)cc2)cs1)c1cccs1 | inactive | –
Cc1ccccc1NC(=O)CSc1nnc(-c2ccc(Cl)cc2)n1C | > 80 µM (inactive) | –
O=C(Nc1nc(-c2ccc(S(=O)(=O)N3CCOCC3)cc2)cs1)c1ccco1 | inactive | –
Cn1c(SCC(=O)Nc2ccccc2)nnc1-c1ccc(Cl)cc1 | > 80 µM (inactive) | –
CN(Cc1cccc(F)c1)C(=O)Cc1ccc(S(=O)(=O)N2CCOCC2)s1 | > 80 µM (inactive) | –
CCCCn1c(SCC(=O)Nc2ncc(C(F)(F)F)cc2Cl)nnc1-c1ccc(OC)cc1 | – | 6.17
Cc1ccc(NC(=O)Cc2nc(-c3ccc(S(=O)(=O)N4CCOCC4)cc3)cs2)cc1 | > 80 µM (inactive) | –
O=S(=O)(c1ccc(-c2csc(N3CCCC3)n2)cc1)N1CCOCC1 | – | 6.02
